Tests used:
Assay type in all cases: biochemical
activated IGF-1R = molecular target: T1, activated IGF-1R (Homo sapiens, UniProt P08069); experiment: In vitro IGF-1R enzymatic assay (ADP-Glo); conditions: ATP 100 μM
T1 construct: purchased Millipore 14-802
Procedure: (§1) Inhibition of IGF-1R and IR kinases by compounds described herein were tested. The IC50 values were measured in vitro using an ADP-Glo kinase assay Kit (Promega). For the IGF-1R assay, active recombinant IGF-1R (Millipore #14-802) was used at 1 ng/reaction, the substrate IGF-1R tide (Millipore #12-527) was used at 125 μM and ATP was used at 100 μM. For the IR assay, active recombinant IR (Millipore #14-803) was used at 1 ng/reaction, the substrate Axl tide (Millipore #12-516) was used at 125 μM and ATP at 50 μM. Kinase reactions in both assays were conducted at 30° C. for 20 min with increasing concentrations of the test compounds.
(§2) The assay results as the percent inhibition of binding are presented in Tables B2 and B3 for IGF-1R and IR respectively.

FLT3 (D835Y) = molecular target: T2, FLT3 (D835Y) (Homo sapiens, UniProt P36888, D835Y); experiment: HotSpot kinase assay against FLT3 (D835Y); conditions: HotSpot 33P assay, ATP 10 μM
T2 sequence (P36888 27-993 D835Y): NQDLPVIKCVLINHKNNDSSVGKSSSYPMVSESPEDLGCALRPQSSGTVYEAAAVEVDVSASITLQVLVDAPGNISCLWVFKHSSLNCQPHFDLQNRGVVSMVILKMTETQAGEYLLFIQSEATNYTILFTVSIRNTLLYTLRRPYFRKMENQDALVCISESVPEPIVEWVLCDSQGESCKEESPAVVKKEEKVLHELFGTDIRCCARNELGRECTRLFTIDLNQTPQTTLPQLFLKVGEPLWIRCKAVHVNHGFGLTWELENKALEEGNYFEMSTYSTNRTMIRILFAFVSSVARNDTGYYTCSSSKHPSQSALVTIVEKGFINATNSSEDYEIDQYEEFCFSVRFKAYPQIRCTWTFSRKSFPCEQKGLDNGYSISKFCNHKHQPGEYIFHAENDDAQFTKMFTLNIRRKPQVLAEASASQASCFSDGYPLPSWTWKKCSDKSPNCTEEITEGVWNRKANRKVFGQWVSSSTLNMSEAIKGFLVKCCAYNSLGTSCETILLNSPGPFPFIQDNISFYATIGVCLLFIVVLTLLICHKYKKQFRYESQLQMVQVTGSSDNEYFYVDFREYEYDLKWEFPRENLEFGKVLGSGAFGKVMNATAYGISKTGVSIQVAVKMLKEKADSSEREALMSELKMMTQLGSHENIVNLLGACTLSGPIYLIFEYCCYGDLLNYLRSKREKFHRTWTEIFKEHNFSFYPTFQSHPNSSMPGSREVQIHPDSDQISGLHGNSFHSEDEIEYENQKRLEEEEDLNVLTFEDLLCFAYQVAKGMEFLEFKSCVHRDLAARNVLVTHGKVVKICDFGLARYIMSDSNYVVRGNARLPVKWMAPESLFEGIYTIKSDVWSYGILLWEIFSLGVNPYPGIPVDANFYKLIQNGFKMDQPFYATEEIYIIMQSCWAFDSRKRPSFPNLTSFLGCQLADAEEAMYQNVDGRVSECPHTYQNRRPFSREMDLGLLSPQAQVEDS
Procedure: Kinase assays were performed using test compounds against a panel of FLT3 kinases: FLT3; FLT3 (D835Y); and FLT3 (ITD). Compounds were prepared as 10 mM stock solutions in DMSO prior to use in the assay. Each compound was tested at 10 concentrations with three-fold serial dilution starting at 1 μM against the three kinases. The control compound, staurosporine, was tested at 10 concentrations with four-fold serial dilution starting at 20 μM. IC50 values and curve fits were obtained using Prism (GraphPad Software). The screening was performed using the “HotSpot” assay platform. The assay measures the conversion of a peptide substrate to ^33P-labelled phosphorylated product. Briefly, specific kinase/substrate pairs along with required cofactors were prepared in reaction buffer. Specifically, the substrate was prepared in reaction buffer (20 mM Hepes, pH 7.5; 10 mM MgCl2; 1 mM EGTA; 0.02% Brij35; 0.02 mg/mL BSA; 0.1 mM Na3VO4; 2 mM DTT; 1% DMSO), followed by delivery of any required cofactor to the resulting substrate solution. The corresponding kinase was delivered into the substrate solution and the reaction mixture was mixed gently. Compound was delivered into the reaction mixture, followed 15-20 min later by addition of a mixture of ATP (Sigma, St. Louis Mo.) and ^33P ATP (specific activity 0.01 μCi/μL final; Perkin Elmer, Waltham, Mass.) to a final concentration of 10 μM to initiate the reaction. Reactions were carried out at RT for 120 min, followed by spotting of the reactions onto P81 ion exchange filter paper (Whatman #3698-915; Whatman Inc., Piscataway, N.J.). Unbound phosphate was removed by extensive washing of filters in 0.75% phosphoric acid. […] The percent of enzyme inhibition was calculated based on the percent of remaining kinase activity. IC50 values were determined.

activated IR = molecular target: T3, activated IR (Homo sapiens, UniProt P06213); experiment: In vitro IR enzymatic assay (ADP-Glo); conditions: ATP 50 μM
T3 construct: purchased Millipore 14-803
Procedure: as §1, §2

T1 sequence (P08069 31-1367): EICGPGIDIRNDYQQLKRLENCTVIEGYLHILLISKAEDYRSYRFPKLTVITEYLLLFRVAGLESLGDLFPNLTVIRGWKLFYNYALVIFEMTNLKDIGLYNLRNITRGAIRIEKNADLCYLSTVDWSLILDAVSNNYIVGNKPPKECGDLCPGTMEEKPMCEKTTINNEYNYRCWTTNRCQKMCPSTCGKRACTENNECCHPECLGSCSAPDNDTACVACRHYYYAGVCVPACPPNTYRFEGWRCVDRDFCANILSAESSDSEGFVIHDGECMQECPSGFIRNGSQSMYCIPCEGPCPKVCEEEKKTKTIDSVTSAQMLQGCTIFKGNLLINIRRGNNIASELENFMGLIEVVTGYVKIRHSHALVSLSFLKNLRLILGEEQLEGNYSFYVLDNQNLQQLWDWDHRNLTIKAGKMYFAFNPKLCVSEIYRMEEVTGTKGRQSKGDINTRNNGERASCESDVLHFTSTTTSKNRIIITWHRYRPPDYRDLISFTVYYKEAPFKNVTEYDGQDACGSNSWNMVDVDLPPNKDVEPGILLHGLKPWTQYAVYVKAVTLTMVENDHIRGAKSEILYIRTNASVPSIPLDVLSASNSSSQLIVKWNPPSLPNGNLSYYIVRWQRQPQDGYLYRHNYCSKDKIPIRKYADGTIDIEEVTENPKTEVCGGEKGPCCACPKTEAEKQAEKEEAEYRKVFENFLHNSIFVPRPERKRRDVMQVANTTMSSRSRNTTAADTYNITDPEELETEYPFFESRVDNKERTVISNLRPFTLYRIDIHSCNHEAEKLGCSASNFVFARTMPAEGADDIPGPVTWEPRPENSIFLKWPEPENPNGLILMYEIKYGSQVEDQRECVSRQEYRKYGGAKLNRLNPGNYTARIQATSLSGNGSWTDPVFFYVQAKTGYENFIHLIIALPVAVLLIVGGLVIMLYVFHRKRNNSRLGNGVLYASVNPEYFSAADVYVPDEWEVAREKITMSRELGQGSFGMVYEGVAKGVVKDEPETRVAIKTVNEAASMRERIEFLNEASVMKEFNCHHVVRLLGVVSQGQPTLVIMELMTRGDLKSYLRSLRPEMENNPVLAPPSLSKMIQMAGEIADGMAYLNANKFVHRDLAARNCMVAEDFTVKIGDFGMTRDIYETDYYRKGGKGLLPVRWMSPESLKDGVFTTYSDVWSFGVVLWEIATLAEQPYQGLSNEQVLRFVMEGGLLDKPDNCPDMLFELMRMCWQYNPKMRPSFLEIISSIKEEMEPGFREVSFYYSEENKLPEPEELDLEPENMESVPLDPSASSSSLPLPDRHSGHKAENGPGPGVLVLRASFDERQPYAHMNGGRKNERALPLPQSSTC
T3 sequence (P06213 28-1382): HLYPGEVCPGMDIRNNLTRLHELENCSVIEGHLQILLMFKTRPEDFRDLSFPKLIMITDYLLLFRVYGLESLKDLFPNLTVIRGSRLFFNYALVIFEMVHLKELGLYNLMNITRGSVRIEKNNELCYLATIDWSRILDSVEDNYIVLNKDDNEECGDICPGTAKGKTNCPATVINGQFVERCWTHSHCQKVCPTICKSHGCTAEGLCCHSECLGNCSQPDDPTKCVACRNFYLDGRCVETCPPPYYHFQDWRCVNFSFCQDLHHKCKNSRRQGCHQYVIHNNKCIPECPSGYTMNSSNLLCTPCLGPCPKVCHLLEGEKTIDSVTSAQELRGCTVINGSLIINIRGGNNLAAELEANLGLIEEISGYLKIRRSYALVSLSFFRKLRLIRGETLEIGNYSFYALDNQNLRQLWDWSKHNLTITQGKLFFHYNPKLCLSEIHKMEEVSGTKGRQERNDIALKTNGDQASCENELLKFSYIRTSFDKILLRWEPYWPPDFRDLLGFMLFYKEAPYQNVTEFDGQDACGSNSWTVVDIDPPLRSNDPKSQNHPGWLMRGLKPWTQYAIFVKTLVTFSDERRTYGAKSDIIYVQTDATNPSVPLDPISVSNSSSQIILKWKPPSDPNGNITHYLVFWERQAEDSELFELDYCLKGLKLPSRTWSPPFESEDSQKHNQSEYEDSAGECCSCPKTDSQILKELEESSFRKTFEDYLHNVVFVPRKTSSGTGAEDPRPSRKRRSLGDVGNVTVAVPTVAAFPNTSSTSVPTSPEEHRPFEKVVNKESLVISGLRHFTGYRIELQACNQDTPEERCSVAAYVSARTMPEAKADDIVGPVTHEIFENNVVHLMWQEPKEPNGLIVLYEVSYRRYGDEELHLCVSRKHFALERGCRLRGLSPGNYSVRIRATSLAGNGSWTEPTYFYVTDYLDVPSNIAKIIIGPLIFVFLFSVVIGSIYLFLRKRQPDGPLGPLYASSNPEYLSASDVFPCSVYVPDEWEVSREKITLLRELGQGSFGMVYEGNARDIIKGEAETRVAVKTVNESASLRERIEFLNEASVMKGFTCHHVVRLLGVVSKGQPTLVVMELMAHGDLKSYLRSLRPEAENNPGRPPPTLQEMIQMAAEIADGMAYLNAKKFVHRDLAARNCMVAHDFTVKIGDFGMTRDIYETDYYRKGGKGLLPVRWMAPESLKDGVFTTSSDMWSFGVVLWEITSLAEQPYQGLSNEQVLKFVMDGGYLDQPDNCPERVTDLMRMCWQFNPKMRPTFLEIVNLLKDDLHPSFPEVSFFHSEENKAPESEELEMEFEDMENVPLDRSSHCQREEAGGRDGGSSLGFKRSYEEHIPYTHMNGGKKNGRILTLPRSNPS

Compound	IC50 (activated IGF-1R) [µM]	IC50 (FLT3 (D835Y)) [µM]	IC50 (activated IR) [µM]	inhibition at 1 µM (activated IGF-1R; compound 1 μM) [%]	inhibition at 1 µM (activated IR; compound 1 μM) [%]
CC1(C(=O)N2CCC(F)(F)CC2)CCCN1c1nc2c(c(Nc3cc(C4CCCC4)[nH]n3)n1)CCC2 (racemic) [compound 146, (1-(4-((5-cyclopentyl-1H-pyrazol-3-yl)amino)-6,7-dihydro-5H-cyclopenta[d]pyrimidin-2-yl)-2-methylpyrrolidin-2-yl)(4,4-difluoropiperidin-1-yl)methanone]	> 30	1.57	> 30	–	–
CC(C)c1cc(Nc2nc(N3CCC[C@H]3C(=O)N(C)c3nccs3)nc3c2CCC3)n[nH]1 [68b, (S)-1-(4-((5-isopropyl-1H-pyrazol-3-yl)amino)-6,7-dihydro-5H-cyclopenta[d]pyrimidin-2-yl)-N-methyl-N-(thiazol-2-yl)pyrrolidine-2-carboxamide]	0.243	0.0838	0.364	84	77
CC(C)(C)c1cc(Nc2nc(N3CCC[C@@H]3C(=O)N3CCC(F)(F)CC3)nc3c2CCC3)n[nH]1 [142a, (R)-(1-(4-((5-(tert-butyl)-1H-pyrazol-3-yl)amino)-6,7-dihydro-5H-cyclopenta[d]pyrimidin-2-yl)pyrrolidin-2-yl)(4,4-difluoropiperidin-1-yl)methanone]	4.85	> 1	2.94	–	–
CC(C)(C)c1cc(Nc2nc(N3CCC[C@H]3C(=O)N3CCC(F)(F)CC3)nc3c2CCC3)n[nH]1 [142b, (S)-(1-(4-((5-(tert-butyl)-1H-pyrazol-3-yl)amino)-6,7-dihydro-5H-cyclopenta[d]pyrimidin-2-yl)pyrrolidin-2-yl)(4,4-difluoropiperidin-1-yl)methanone]	> 10	> 1	11.6	–	–
CCC(=O)N1CCN(C(=O)[C@H]2CCCN2c2nc3c(c(Nc4cc(C5CCCC5)[nH]n4)n2)CCC3)CC1 [143a, 1-(4-((4-((5-cyclopentyl-1H-pyrazol-3-yl)amino)-6,7-dihydro-5H-cyclopenta[d]pyrimidin-2-yl)-D-prolyl)piperazin-1-yl)propan-1-one]	0.74	0.014	0.65	–	–
CCC(=O)N1CCN(C(=O)[C@@H]2CCCN2c2nc3c(c(Nc4cc(C5CCCC5)[nH]n4)n2)CCC3)CC1 [143b, (S)-1-(4-((4-((5-cyclopentyl-1H-pyrazol-3-yl)amino)-6,7-dihydro-5H-cyclopenta[d]pyrimidin-2-yl)prolyl)piperazin-1-yl)propan-1-one]	> 30	0.187	17.2	–	–
CCN(C(=O)[C@@H]1CCCN1c1nc2c(c(Nc3cc(C(C)(C)C)[nH]n3)n1)CCC2)c1nccs1 [144b, (S)-1-(4-((5-(tert-butyl)-1 H-pyrazol-3-yl)amino)-6,7-dihydro-5H-cyclopenta[d]pyrimidin-2-yl)-N-ethyl-N-(thiazol-2-yl)pyrrolidine-2-carboxamide]	10.3	> 1	5.96	–	–
CCN(C(=O)[C@@H]1CCCN1c1nc2c(c(Nc3cc(C(C)C)[nH]n3)n1)CCC2)c1nccs1 [145b, (S)—N-ethyl-1-(4-((5-isopropyl-1H-pyrazol-3-yl)amino)-6,7-dihydro-5H-cyclopenta[d]pyrimidin-2-yl)-N-(thiazol-2-yl)pyrrolidine-2-carboxamide]	0.47	0.262	0.67	–	–

— patent US20170137410A1, “FUSED CYCLOALKYL-PYRIMIDINE COMPOUNDS AND USES THEREOF” (Medivation Technologies, Inc., priority 2014, published 2017)
